The source of these data is ChEMBL document CHEMBL3396992, “Synthesis and biological evaluation of pyrazolylthiazole carboxylic acids as potent anti-inflammatory-antimicrobial agents” (2015).

Values after ≈ are worked out from the molar mass of the structure shown. Active and inactive are the calls of the source. No cut-off for these calls is given here.

Experiment [1] concerns Pseudomonas aeruginosa. Description: microbe, parasite or virus in culture. As to conditions: MTCC 741, 24 h, read-out: DIZ.
Description: (§1) Antimicrobial activity against Pseudomonas aeruginosa MTCC 741 assessed as growth inhibition at 4 mg/ml after 24 hrs by agar well diffusion method
Experiment [2] deals with Staphylococcus aureus. Description: Antimicrobial activity against Staphylococcus aureus MTCC 96 assessed as growth inhibition at 4 mg/ml after 24 hrs by agar well diffusion method. In kind it is functional. To be noted: for zone of inhibition at 4000 µg/mL: MTCC 96, 24 h, read-out: DIZ.
For experiment [3], the system named is Bacillus subtilis. Description: Antimicrobial activity against Bacillus subtilis MTCC 121 assessed as growth inhibition at 4 mg/ml after 24 hrs by agar well diffusion method. The experiment is classed as functional. To be noted: MTCC 121, 24 h, read-out: DIZ.
Experiment [4] deals with Bacillus subtilis. Briefly: Antimicrobial activity against Bacillus subtilis MTCC 121 assessed as growth inhibition after 24 hrs by agar well diffusion method. The experiment is classed as functional. To be noted: MTCC 121, 24 h.
Experiment [5] has as its system Staphylococcus aureus. Description: Antimicrobial activity against Staphylococcus aureus MTCC 96 assessed as growth inhibition after 24 hrs by agar well diffusion method. In kind it is functional.
Experiment [6] concerns Rattus norvegicus. Description: Antiinflammatory activity against carrageenan-induced paw edema male Wistar albino rat assessed as edema volume at 50 mg/kg, ip administered 30 mins prior to carrageenan-challenge measured after 3 hrs (reference value: 1.73 +/- 0.09 mL). The experiment is classed as functional. To be noted: route intraperitoneal.
For experiment [7], the system named is Pseudomonas aeruginosa. To be noted: MTCC 741, 4 mg/ml.
Description: as §1
Experiment [8] has as its system Rattus norvegicus. Briefly: Antiinflammatory activity against carrageenan-induced paw edema male Wistar albino rat at 50 mg/kg, ip administered 30 mins prior to carrageenan-challenge measured after 2 hrs relative to control. In kind it is functional. As to conditions: route intraperitoneal.
For experiment [9], the system named is Rattus norvegicus. Briefly: Antiinflammatory activity against carrageenan-induced paw edema male Wistar albino rat assessed as edema volume at 50 mg/kg, ip administered 30 mins prior to carrageenan-challenge measured after 2 hrs (reference value: 1.21 +/- 0.16 mL). The experiment is classed as functional. As to conditions: route intraperitoneal.
Experiment [10] relates to Rattus norvegicus. Briefly: Antiinflammatory activity against carrageenan-induced paw edema male Wistar albino rat assessed as edema volume at 50 mg/kg, ip administered 30 mins prior to carrageenan-challenge measured after 4 hrs (reference value: 1.88 +/- 0.20 mL). The experiment is classed as functional. As to conditions: route intraperitoneal.
Experiment [11] concerns Escherichia coli. Description: Antimicrobial activity against Escherichia coli MTCC 1652 assessed as growth inhibition at 4 mg/ml after 24 hrs by agar well diffusion method. In kind it is functional, organism-based.
The test system of experiment [12] is Rattus norvegicus. Description: Antiinflammatory activity against carrageenan-induced paw edema male Wistar albino rat at 50 mg/kg, ip administered 30 mins prior to carrageenan-challenge measured after 1 hr relative to control. In kind it is functional. As to conditions: route intraperitoneal.
Experiment [13] has as its system Candida albicans. Description: Antimicrobial activity against Candida albicans MTCC 3017 assessed as growth inhibition at 4 mg/ml after 24 hrs by agar well diffusion method. In kind it is functional. As to conditions: MTCC 3017, 24 h, read-out: DIZ.
The subject of experiment [14] is Rattus norvegicus. Briefly: Antiinflammatory activity against carrageenan-induced paw edema male Wistar albino rat at 50 mg/kg, ip administered 30 mins prior to carrageenan-challenge measured after 3 hrs relative to control. The experiment is classed as functional. As to conditions: route intraperitoneal.
Experiment [15] has as its system Saccharomyces cerevisiae. Briefly: Antimicrobial activity against Saccharomyces cerevisiae MTCC 170 assessed as growth inhibition at 4 mg/ml after 24 hrs by agar well diffusion method. The experiment is classed as functional.
In experiment [16] the test system is Rattus norvegicus. Description: Antiinflammatory activity against carrageenan-induced paw edema male Wistar albino rat at 50 mg/kg, ip administered 30 mins prior to carrageenan-challenge measured after 4 hrs relative to control. The experiment is classed as functional. To be noted: route intraperitoneal.
In experiment [17] the test system is Candida albicans. Description: Antimicrobial activity against Candida albicans MTCC 3017 assessed as growth inhibition after 24 hrs by agar well diffusion method. The experiment is classed as functional. As to conditions: MTCC 3017, 24 h.
The test system of experiment [18] is Saccharomyces cerevisiae. Briefly: Antimicrobial activity against Saccharomyces cerevisiae MTCC 170 assessed as growth inhibition after 24 hrs by agar well diffusion method. The experiment is classed as functional.
Experiment [19] relates to Rattus norvegicus. Description: Antiinflammatory activity against carrageenan-induced paw edema male Wistar albino rat assessed as edema volume at 50 mg/kg, po administered 30 mins prior to carrageenan-challenge measured after 1 hr (reference value: 1.11 +/- 0.12 mL). The experiment is classed as functional.
Experiment [20] has as its system Rattus norvegicus. Description: Antiinflammatory activity against carrageenan-induced paw edema male Wistar albino rat assessed as edema volume at 10 mg/kg, ip administered 30 mins prior to carrageenan-challenge measured after 1 hr (reference value: 1.11 +/- 0.12 mL). In kind it is functional. To be noted: route intraperitoneal.
Experiment [21] concerns Rattus norvegicus. Briefly: Antiinflammatory activity against carrageenan-induced paw edema male Wistar albino rat assessed as edema volume at 10 mg/kg, ip administered 30 mins prior to carrageenan-challenge measured after 3 hrs (reference value: 1.73 +/- 0.09 mL). In kind it is functional. To be noted: route intraperitoneal.
The test system of experiment [22] is Rattus norvegicus. Briefly: Antiinflammatory activity against carrageenan-induced paw edema male Wistar albino rat assessed as edema volume at 10 mg/kg, ip administered 30 mins prior to carrageenan-challenge measured after 2 hrs (reference value: 1.21 +/- 0.16 mL). As to conditions: route intraperitoneal. In kind it is functional.
Experiment [23] has as its system Rattus norvegicus. Briefly: Antiinflammatory activity against carrageenan-induced paw edema male Wistar albino rat at 10 mg/kg, ip administered 30 mins prior to carrageenan-challenge measured after 1 hr relative to control. The experiment is classed as functional. As to conditions: route intraperitoneal.
Experiment [24] relates to Rattus norvegicus. Description: Antiinflammatory activity against carrageenan-induced paw edema male Wistar albino rat at 10 mg/kg, ip administered 30 mins prior to carrageenan-challenge measured after 2 hrs relative to control. The experiment is classed as functional. To be noted: route intraperitoneal.
For experiment [25], the system named is Rattus norvegicus. Description: Antiinflammatory activity against carrageenan-induced paw edema male Wistar albino rat at 10 mg/kg, ip administered 30 mins prior to carrageenan-challenge measured after 4 hrs relative to control. To be noted: route intraperitoneal. In kind it is functional.
The subject of experiment [26] is Rattus norvegicus. Description: Antiinflammatory activity against carrageenan-induced paw edema male Wistar albino rat at 10 mg/kg, ip administered 30 mins prior to carrageenan-challenge measured after 3 hrs relative to control. The experiment is classed as functional. As to conditions: route intraperitoneal.
In experiment [27] the test system is Rattus norvegicus. Description: Antiinflammatory activity against carrageenan-induced paw edema male Wistar albino rat assessed as edema volume at 10 mg/kg, ip administered 30 mins prior to carrageenan-challenge measured after 4 hrs (reference value: 1.88 +/- 0.20 mL). The experiment is classed as functional. To be noted: route intraperitoneal.

Turning to `O=C(O)c1cn(C2CC2)c2cc(N3CCNCC3)c(F)cc2c1=O` [CIPROFLOXACIN], the values for the zone of inhibition at 4000 µg/mL in [1], in experiment [2] and in [3] were 22 mm, 24 mm and 24 mm, respectively. Besides, the MIC in experiment [4] is 6.25 µg/mL (≈ 18.9 µM).

Regarding `CCOC(=O)c1sc(-c2cn(-c3ccccc3)nc2-c2ccc(F)cc2)nc1-c1ccc(F)cc1`, the MIC result in experiment [5] and in [18] was “inactive” each time. For the same compound, the Activity was determined as 0.32 mL in experiment [6]; 79.33% in [8]; 0.25 mL in [9]; 0.23 mL in experiment [10]; 85.58% in [12]; 81.5% in experiment [14]. The Activity was 87.76% in experiment [16] and 0.16 mL in experiment [19]. Besides, in [7], the DIZ result is “inactive”. Besides, the “diameter of the inhibition zone (DIZ)” value in experiment [11], in experiment [2] and in experiment [15] was “inactive” throughout. Moreover, the zone of inhibition at 4000 µg/mL was 15.6 mm in experiment [3] and 22.6 mm in experiment [13]. In addition, the MIC worked out at 12.5 µg/mL (≈ 25.6 µM) in experiment [17] and 50 µg/mL (≈ 103 µM) in experiment [4].

With `COc1ccc2c(c1)c(CC(=O)O)c(C)n2C(=O)c1ccc(Cl)cc1` [INDOMETHACIN], the Activity in experiment [20] is 0.07 mL; in experiment [21] it was 0.15 mL; in [22] it was 0.14 mL; in experiment [23], 93.69%; in experiment [24], 88.42%; in experiment [25], 91.48%. In addition, the Activity in experiment [26] was 91.32%; in experiment [27], 0.16 mL.

Turning to `O=C(O)c1sc(-c2cn(-c3ccccc3)nc2-c2ccccc2)nc1-c1ccc(Cl)cc1`, the MIC in experiment [5] (MTCC 96, 24 h) was 25 µg/mL (≈ 54.6 µM); in experiment [17], 50 µg/mL (≈ 109 µM); in experiment [4] it was 50 µg/mL (≈ 109 µM); in [18] (MTCC 170, 24 h), 25 µg/mL (≈ 54.6 µM). The Activity in experiment [6] came out at 0.2 mL; in [8], 82.64%; in experiment [9], 0.21 mL; in [10] it was 0.22 mL; in experiment [12], 87.38%; in [14], 88.43%. In addition, the Activity in [16] was determined as 88.29%; in experiment [19], 0.14 mL. The DIZ entry in experiment [7] was “inactive”. Further, in experiment [11], the “diameter of the inhibition zone (DIZ)” value was “inactive”. For the same compound, the zone of inhibition at 4000 µg/mL in [2] came to 21 mm; in [3] it was 17.6 mm; in [13], 17.6 mm; in experiment [15] (MTCC 170, 24 h, read-out: DIZ), 20.6 mm.
